Laboratory results published in ChEMBL document CHEMBL1145783, “Development of an orexin-2 receptor selective agonist, [Ala(11), D-Leu(15)]orexin-B” (Bioorg Med Chem Lett, 2003).

Target: T1, Orexin receptor type 2 (Homo sapiens, UniProt O43614)
T1 sequence (O43614 whole entry): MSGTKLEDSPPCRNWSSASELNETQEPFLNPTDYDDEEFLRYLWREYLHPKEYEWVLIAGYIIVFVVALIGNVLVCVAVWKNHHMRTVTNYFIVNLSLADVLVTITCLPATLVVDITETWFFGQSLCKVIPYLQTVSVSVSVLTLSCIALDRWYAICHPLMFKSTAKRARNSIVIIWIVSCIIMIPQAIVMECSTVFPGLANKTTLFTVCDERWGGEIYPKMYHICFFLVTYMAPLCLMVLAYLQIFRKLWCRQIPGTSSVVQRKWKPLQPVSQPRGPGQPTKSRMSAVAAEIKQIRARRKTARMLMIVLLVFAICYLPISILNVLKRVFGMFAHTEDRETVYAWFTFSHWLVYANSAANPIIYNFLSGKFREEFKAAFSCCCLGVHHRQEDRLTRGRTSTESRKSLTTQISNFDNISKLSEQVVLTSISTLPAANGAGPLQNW
Experiment: Agonist activity against human orexin 2 receptor; EC50; nM
Format: functional

SMILES | EC50 [nM]
CSCC[C@H](N)C(=O)N[C@H](C(=O)N[C@@H](CC(C)C)C(=O)N[C@H](C)C(=O)NCC(=O)N[C@@H](C)C(=O)N[C@@H](C)C(=O)N[C@@H](Cc1c[nH]cn1)C(=O)N[C@@H](CC(N)=O)C(=O)NCC(=O)N[C@@H](CO)C(=O)N[C@@H](C)C(=O)N[C@@H](CCC(N)=O)C(=O)N[C@@H](CC(C)C)C(=O)N[C@@H](CC(C)C)C(=O)N[C@@H](CCCN=C(N)N)C(=O)N[C@@H](CCC(N)=O)C(=O)N[C@@H](CC(C)C)C(=O)N[C@@H](CCCN=C(N)N)C(=O)NCC(=O)N[C@@H](CCC(N)=O)C(=O)N[C@@H](CC(C)C)C(=O)NCC(=O)N1CCC[C@H]1C(=O)N1CCC[C@H]1C(=O)NCC(=O)N[C@@H](CO)C(=O)N[C@@H](CCCN=C(N)N)C(N)=O)[C@@H](C)O | > 390
CC[C@H](C)[C@H](NC(=O)[C@H](CC(C)C)NC(=O)[C@@H](NC(=O)[C@@H](N)CCSC)[C@@H](C)O)C(=O)NCC(=O)N[C@@H](C)C(=O)N[C@@H](C)C(=O)N[C@@H](Cc1cnc[nH]1)C(=O)N[C@@H](CC(N)=O)C(=O)NCC(=O)N[C@@H](CO)C(=O)N[C@@H](C)C(=O)N[C@@H](CCC(N)=O)C(=O)N[C@@H](CC(C)C)C(=O)N[C@H](CC(C)C)C(=O)N[C@@H](CCCN=C(N)N)C(=O)N[C@@H](CCC(N)=O)C(=O)N[C@@H](CC(C)C)C(=O)N[C@@H](CCCN=C(N)N)C(=O)NCC(=O)N[C@@H](CCC(N)=O)C(=O)N[C@@H](CC(C)C)C(=O)NCC(=O)N1CCC[C@H]1C(=O)N1CCC[C@H]1C(=O)NCC(=O)N[C@@H](CO)C(=O)N[C@@H](CCCN=C(N)N)C(N)=O | 0.44
CC[C@H](C)[C@H](NC(=O)[C@H](CC(C)C)NC(=O)[C@@H](NC(=O)[C@@H](N)CCSC)[C@@H](C)O)C(=O)NCC(=O)N[C@@H](C)C(=O)N[C@@H](C)C(=O)N[C@@H](Cc1cnc[nH]1)C(=O)N[C@@H](CC(N)=O)C(=O)NCC(=O)N[C@@H](CO)C(=O)N[C@@H](C)C(=O)N[C@@H](CCC(N)=O)C(=O)N[C@@H](CC(C)C)C(=O)N[C@@H](CC(C)C)C(=O)N[C@@H](CCCN=C(N)N)C(=O)N[C@@H](CCC(N)=O)C(=O)N[C@H](CC(C)C)C(=O)N[C@@H](CCCN=C(N)N)C(=O)NCC(=O)N[C@@H](CCC(N)=O)C(=O)N[C@@H](CC(C)C)C(=O)NCC(=O)N1CCC[C@H]1C(=O)N1CCC[C@H]1C(=O)NCC(=O)N[C@@H](CO)C(=O)N[C@@H](CCCN=C(N)N)C(N)=O | 0.6
CC[C@H](C)[C@H](NC(=O)[C@@H](CC(C)C)NC(=O)[C@@H](NC(=O)[C@@H](N)CCSC)[C@@H](C)O)C(=O)NCC(=O)N[C@@H](C)C(=O)N[C@@H](C)C(=O)N[C@@H](Cc1cnc[nH]1)C(=O)N[C@@H](CC(N)=O)C(=O)NCC(=O)N[C@@H](CO)C(=O)N[C@@H](C)C(=O)N[C@@H](CCC(N)=O)C(=O)N[C@@H](CC(C)C)C(=O)N[C@@H](CC(C)C)C(=O)N[C@@H](CCCN=C(N)N)C(=O)N[C@@H](CCC(N)=O)C(=O)N[C@@H](CC(C)C)C(=O)N[C@@H](CCCN=C(N)N)C(=O)NCC(=O)N[C@@H](CCC(N)=O)C(=O)N[C@@H](CC(C)C)C(=O)NCC(=O)N1CCC[C@H]1C(=O)N1CCC[C@H]1C(=O)NCC(=O)N[C@@H](CO)C(=O)N[C@@H](CCCN=C(N)N)C(N)=O | > 200
CC[C@H](C)[C@H](NC(=O)[C@H](CC(C)C)NC(=O)[C@H](NC(=O)[C@@H](N)CCSC)[C@@H](C)O)C(=O)NCC(=O)N[C@@H](C)C(=O)N[C@@H](C)C(=O)N[C@@H](Cc1cnc[nH]1)C(=O)N[C@@H](CC(N)=O)C(=O)NCC(=O)N[C@@H](CO)C(=O)N[C@@H](C)C(=O)N[C@@H](CCC(N)=O)C(=O)N[C@@H](CC(C)C)C(=O)N[C@@H](CC(C)C)C(=O)N[C@@H](CCCN=C(N)N)C(=O)N[C@@H](CCC(N)=O)C(=O)N[C@@H](CC(C)C)C(=O)N[C@@H](CCCN=C(N)N)C(=O)NCC(=O)N[C@@H](CCC(N)=O)C(=O)N[C@@H](CC(C)C)C(=O)NCC(=O)N1CCC[C@H]1C(=O)N1CCC[C@H]1C(=O)NCC(=O)N[C@@H](CO)C(=O)N[C@@H](CCCN=C(N)N)C(N)=O | > 260

Now those with a lower EC50, led by results:

EC50 [nM] | SMILES
0.16 | CC[C@H](C)[C@H](NC(=O)[C@H](CC(C)C)NC(=O)[C@@H](NC(=O)[C@@H](N)CCSC)[C@@H](C)O)C(=O)NCC(=O)N[C@@H](C)C(=O)N[C@@H](C)C(=O)N[C@@H](Cc1c[nH]cn1)C(=O)N[C@@H](CC(N)=O)C(=O)NCC(=O)N[C@@H](CO)C(=O)N[C@@H](C)C(=O)N[C@@H](CCC(N)=O)C(=O)N[C@@H](CC(C)C)C(=O)N[C@@H](CC(C)C)C(=O)N[C@@H](CCCN=C(N)N)C(=O)N[C@@H](CCC(N)=O)C(=O)N[C@@H](CC(C)C)C(=O)N[C@@H](CCCN=C(N)N)C(=O)NCC(=O)N[C@@H](CCC(N)=O)C(=O)N[C@@H](CC(C)C)C(=O)NCC(=O)N1CCC[C@@H]1C(=O)N1CCC[C@H]1C(=O)NCC(=O)N[C@@H](CO)C(=O)N[C@@H](CCCN=C(N)N)C(N)=O
0.11 | CC[C@H](C)[C@H](NC(=O)[C@H](CC(C)C)NC(=O)[C@@H](NC(=O)[C@@H](N)CCSC)[C@@H](C)O)C(=O)NCC(=O)N[C@@H](C)C(=O)N[C@@H](C)C(=O)N[C@@H](Cc1c[nH]cn1)C(=O)N[C@@H](CC(N)=O)C(=O)NCC(=O)N[C@@H](CO)C(=O)N[C@@H](C)C(=O)N[C@@H](CCC(N)=O)C(=O)N[C@@H](CC(C)C)C(=O)N[C@@H](CC(C)C)C(=O)N[C@@H](CCCN=C(N)N)C(=O)N[C@H](CCC(N)=O)C(=O)N[C@H](CC(C)C)C(=O)N[C@@H](CCCN=C(N)N)C(=O)NCC(=O)N[C@@H](CCC(N)=O)C(=O)N[C@@H](CC(C)C)C(=O)NCC(=O)N1CCC[C@H]1C(=O)N1CCC[C@H]1C(=O)NCC(=O)N[C@@H](CO)C(=O)N[C@@H](CCCN=C(N)N)C(N)=O
0.2 | CC[C@H](C)[C@H](NC(=O)[C@H](CC(C)C)NC(=O)[C@@H](NC(=O)[C@@H](N)CCSC)[C@@H](C)O)C(=O)NCC(=O)N[C@@H](C)C(=O)N[C@@H](C)C(=O)N[C@@H](Cc1c[nH]cn1)C(=O)N[C@@H](CC(N)=O)C(=O)NCC(=O)N[C@@H](CO)C(=O)N[C@@H](C)C(=O)N[C@@H](CCC(N)=O)C(=O)N[C@@H](CC(C)C)C(=O)N[C@@H](CC(C)C)C(=O)N[C@@H](CCCN=C(N)N)C(=O)N[C@@H](CCC(N)=O)C(=O)N[C@@H](CC(C)C)C(=O)N[C@@H](CCCN=C(N)N)C(=O)N[C@@H](C)C(=O)N[C@@H](CCC(N)=O)C(=O)N[C@@H](CC(C)C)C(=O)NCC(=O)N1CCC[C@H]1C(=O)N1CCC[C@H]1C(=O)NCC(=O)N[C@@H](CO)C(=O)N[C@@H](CCCN=C(N)N)C(N)=O
0.41 | CC[C@H](C)[C@H](NC(=O)[C@H](CC(C)C)NC(=O)[C@@H](NC(=O)[C@@H](N)CCSC)[C@@H](C)O)C(=O)NCC(=O)N[C@@H](C)C(=O)N[C@@H](C)C(=O)N[C@@H](Cc1cnc[nH]1)C(=O)N[C@@H](CC(N)=O)C(=O)NCC(=O)N[C@@H](CO)C(=O)N[C@@H](C)C(=O)N[C@@H](CCC(N)=O)C(=O)N[C@@H](CC(C)C)C(=O)N[C@@H](CC(C)C)C(=O)N[C@H](CCCN=C(N)N)C(=O)N[C@@H](CCC(N)=O)C(=O)N[C@@H](CC(C)C)C(=O)N[C@@H](CCCN=C(N)N)C(=O)NCC(=O)N[C@@H](CCC(N)=O)C(=O)N[C@@H](CC(C)C)C(=O)NCC(=O)N1CCC[C@H]1C(=O)N1CCC[C@H]1C(=O)NCC(=O)N[C@@H](CO)C(=O)N[C@@H](CCCN=C(N)N)C(N)=O
